Entries after “also recorded” stand apart in the source; their conditions may differ. Read-outs that look alike come from different tables or passages of the source.
Assays:
SARS-CoV-2 Omicron BA.4 = assay: microbe, parasite or virus in culture; type: cell-based; conditions: Severe acute respiratory syndrome coronavirus 2, Vero C1008, 48 h
[1] = Solubility of the dosing preparation at the effective dose; type: physicochemical; conditions: 300 mg/kg dose, saline with 5% DMSO
Experimental: In vivo, a total of 20 female K18-hACE2 transgenic mice aged 8 weeks were obtained from GemPharmatech (Nanjing, China), which were classified into four groups with five mice in each group: Group 1 served as the untreated, infected control (Virus group); Group 2 received 300 mg/kg of PF-07321332 as the positive control; and Groups 3 and 4 were administered CHLA at doses of 150 and 300 mg/kg, respectively. On Day 0, these K18-hACE2 mice were intranasally inoculated with 1000 FFU of SARS-CoV-2 WT, which was pre-diluted in 50 μL of DMEM. The therapeutic administration was commenced 2 h after infection. The K18-hACE2 transgenic mice were orally administered with either PF-07321332 (300 mg/kg) or CHLA at varying doses (150 and 300 mg/kg), which were dissolved in a saline solution containing 5% DMSO. The mice were euthanized three days post-administration, and the lungs were collected and placed in 1 mL PBS and preserved at −80 °C to evaluate pulmonary virus titers.

[2] = test system: SARS-CoV-2 Omicron BA.1.1; assay: microbe, parasite or virus in culture; type: cell-based; conditions: Severe acute respiratory syndrome coronavirus 2, Vero C1008, 48 h
[3] = Caco-2 bidirectional permeability assay; type: in vitro ADME; conditions: human, pH 7.4
Caco-2 cells = assay: Caco-2 bidirectional permeability assay; type: in vitro ADME
[4] = Acute toxicity test in mice; type: in vivo, C57BL/6 mice; conditions: 200 and 500 mg/kg, i.g.
Experimental: Specific-pathogen-free (SPF) C57BL/6 mice were used, balanced for gender, with males and females weighing 18–20 g. The Institutional Committee approved all animal experiment procedures in this study for Animal Care and Biosafety at the Animal Center, Tianjin University of Traditional Chinese Medicine. CHLA was weighed and subsequently dissolved in a 5% DMSO solution, which was then diluted with normal saline (0.9% sodium chloride solution) and mixed to achieve the desired concentration. To evaluate CHLA's acute toxicity, mice were randomly allocated into three groups (n = 10): a control group administered normal saline, and two treatment groups administered CHLA solution at 200 and 500 mg/kg, respectively. We monitored all mice that occurred twice daily over 14 days, focusing on toxicological signs, changes in body weight, and behavioral abnormalities. Upon concluding the study, specimens from blood, heart, liver, spleen, lung, and kidney were harvested for analysis.

SARS-CoV-2 Omicron BA.5 = assay: microbe, parasite or virus in culture; type: cell-based; conditions: Severe acute respiratory syndrome coronavirus 2, Vero C1008, 48 h
SARS-CoV-2 Delta = assay: microbe, parasite or virus in culture; type: cell-based; conditions: Severe acute respiratory syndrome coronavirus 2, Vero C1008, 48 h
[5] = Cell viability assay (CCK-8); type: cell-based; conditions: African green monkey; Vero E6 cells, CCK8, 48 h
Experimental: Cell viability was assessed using the Cell Counting Kit-8 assay (CCK-8, MedChemExpress, China). In brief, Vero E6 cells (ATCC, CRL-1586) at a density of 5 × 10^4 cells/well were seeded into 96-well plates for 24 h. Cells were cultured in Dulbecco's modified Eagle's medium (DMEM) (Gibco, USA), supplemented with 10% (v/v) serum, 100 U/mL penicillin, and 100 μg/mL streptomycin. Serial dilutions of CHLA (200 μL) at concentrations of 100, 80, 60, 40, 20, 10, and 5 μmol/L were added to wells and incubated for another 24 or 48 h, respectively. Following the incubation, the existing medium was replaced with fresh medium containing a 10% CCK-8 solution and incubated at 37 °C for 1 h. Absorbance at 450 nm was measured using a Microplate Reader (TECAN Sunrise™) to determine the final optical density. Data were analyzed using GraphPad Prism 8.0 software (version 8.0). All experiments were performed in triplicate to ensure reliability.

[6] = test system: SARS-CoV-2 Omicron BA.2.3; assay: microbe, parasite or virus in culture; type: cell-based; conditions: Severe acute respiratory syndrome coronavirus 2, Vero C1008, 48 h
SARS-CoV-2 WT [7] = type: in vivo, K18-hACE2 transgenic mice; conditions: for lung live viral titers vs Virus group: three days post-infection; for body weight of infected mice: 1000 FFU SARS-CoV-2 WT
[8] = Pharmacokinetic study in rats (LC-MS/MS); type: in vivo, Sprague–Dawley (SD) rats; conditions: male, Sprague-Dawley, plasma, rat
Experimental: The PK study was strictly conducted according to the National Medical Products Administration (NMPA) Good Laboratory Practice (GLP) guidelines, which was undertaken at the Animal Center of Tianjin University of Traditional Chinese Medicine. Sprague–Dawley (SD) rats were supplied by Beijing Vital River Laboratory Animal Technology Co., Ltd. (Beijing, China). Male SD rats (n = 5 per group, weights: 180–200 g and age: 6–8 weeks) were administered by CHLA (solubilized in DMSO: 0.9% NaCl = 5:95, v/v) at doses of 10 and 5 mg/kg via intragastric (i.g.) and intravenous (i.v.) routes, respectively. Blood samples were collected at specified intervals post-administration (0.033, 0.083, 0.166, 0.25, 0.5, 1, 4, 6, 8, 12, 24, 36, and 48 h), followed by centrifugation at 4000 rpm (Thermo Scientific Sorvall ST 40R Centrifuge, Osterode, Germany) and 4 °C for 10 min. The supernatant plasma was stored at −20 °C for subsequent analysis.
Analysis was performed on a Shimadzu LC-20AD Prominence Liquid Chromatograph (Shimadzu Corporation, Japan)–AB Sciex API […] mass spectrometer (Applied Biosystems, USA) (LC–MS/MS). Samples were separated on an Agilent Poroshell 120 EC-C18 column (2.7 μm, 3.0 mm × 50 mm) (Agilent, USA). The column temperature was 35 °C, and the mobile phase consisted of water with 0.1% formic acid (v/v, buffer A) and acetonitrile with 0.1% formic acid (v/v, buffer B). The elution was conducted according to a 5-min gradient program (0–0.5 min, 10% buffer B; 0.5–2 min, 10%–90% buffer B; 2–3.5 min, 90% buffer B; 3.5–5 min, 10% buffer B), with the flow rate set at 0.5 mL/min and the injection volume at 10 μL. The mass spectrometry operated in positive MRM mode, targeting the precursor and product ions of CHLA (m/z 953.3 →301.1 and 953.3 →275.1, respectively). Tolbutamide served as the internal standard (IS), with precursor and product ions at 269.1 →170.1. The parameters were analyzed by […] via DAS 3.2.8 software. The regression equation for CHLA, based on the peak area ratio of CHLA to IS against the concentration, was (Eq. (1)):(1) y=0.0000796x+0.000162(r=0.9968) indicating a strong correlation.

SARS-CoV-2 WT [9] = assay: Antiviral CPE assay in infected Vero E6 cells; type: cell-based; conditions: Severe acute respiratory syndrome coronavirus 2, Vero C1008, Vero E6, MOI 0.01, 48 h
E166V mutation of M^pro = conditions: E166V mutant vs wild-type M^pro; cited from earlier work

Row | SMILES | EC50 (SARS-CoV-2 Omicron BA.4) [µM] | solubility at the effective dose [1] | EC50 [2] [µM] | Papp A→B at 2 h, 5 μmol/L ([3]; Caco-2, 5 μmol/L) [nm/s] | efflux ratio at 2 h, 5 μmol/L ([3]; Caco-2, 5 μmol/L) | Papp (A–B) (Caco-2 cells; Caco-2, 5 µmol/L, Table S3) | EC50 (SARS-CoV-2 Omicron BA.5) [µM] | EC50 (SARS-CoV-2 Delta) [µM] | EC50 [6] [µM] | body weight of infected mice (SARS-CoV-2 WT [7]; 300 mg/kg oral) | lung live viral titers vs Virus group (SARS-CoV-2 WT [7]; 300 mg/kg oral) | EC50 (SARS-CoV-2 WT [9]) [µM] | Papp B→A at 2 h, 5 μmol/L ([3]; Caco-2, 5 µmol/L, Table S3) [nm/s] | other results
1 | O=C(O)C[C@@H]1C(=O)O[C@H]2[C@@H]3OC(=O)c4cc(O)c(O)c(O)c4-c4c(cc(O)c(O)c4O)C(=O)OC[C@H]2O[C@@H](OC(=O)c2cc(O)c(O)c(O)c2)[C@@H]3OC(=O)c2cc(O)c(O)c3c2[C@H]1[C@H](O)C(=O)O3 [CHLA, chebulagic acid] | 1.89 | superior solubility | 0.82 | 12 | 0.33 | 1.20 10-6, cm/s | 1.91 | 1.86 | 1.11 | weight recovery | significant decrease | 0.43 |  | Papp B→A at 2 h, 5 μmol/L ([3]; Caco-2, 5 μmol/L): 3.9 nm/s; membrane permeability, in words (Caco-2 cells; Caco-2, 5 μmol/L): moderate membrane permeability; Papp (B–A) (Caco-2 cells; Caco-2, 5 µmol/L, Table S3): 0.39 10-6, cm/s; histology of lung, heart, spleen, liver and kidney [4]: No obvious histological changes; acute oral toxicity, overall finding ([4]; 14 days): safe; body weight vs control group ([4]; 14 days): no significant difference; CC50 at 48 h [5]: > 100 µM; lung live viral titers vs Virus group (SARS-CoV-2 WT [7]; 150 mg/kg oral): no significant difference; antiviral efficacy compared with positive control PF-07321332 (300 mg/kg) (SARS-CoV-2 WT [7]; 300 mg/kg oral, P > 0.05): equivalent to that of PF-07321332; also recorded: comparable to that of PF-07321332; AUC(0-t) ([8]; iv, i.v. 5 mg/kg): 16.3 ± 1.98 µg·h/mL; Cmax ([8]; iv, i.v. 5 mg/kg): 4.16 ± 0.0794 µg/mL; Tmax ([8]; iv, i.v. 5 mg/kg): 0.033 h; half-life ([8]; iv, i.v. 5 mg/kg): 39.6 ± 13.5 h; bioavailability ([8]; oral, i.g. 10 mg/kg vs i.v. 5 mg/kg, read-out: oral bioavailability (F)): 7.1%; AUC(0-t) ([8]; po, i.g. 10 mg/kg): 2.32 µg·h/mL; Cmax ([8]; po, i.g. 10 mg/kg): 0.241 µg/mL; Tmax ([8]; po, i.g. 10 mg/kg): 2 h; half-life ([8]; po, i.g. 10 mg/kg): 15.2 h
2 | C[C@H]1O[C@@H](O[C@H]2[C@@H](O)C[C@H](O[C@H]3[C@@H](O)C[C@H](O[C@H]4CC[C@@]5(C)[C@H](CC[C@@H]6[C@@H]5C[C@@H](O)[C@]5(C)[C@@H](C7=CC(=O)OC7)CC[C@]65O)C4)O[C@@H]3C)O[C@@H]2C)C[C@H](O)[C@@H]1O [Digoxin] |  |  |  |  | 29.6 |  |  |  |  |  |  |  | 202 | Papp A→B at 2 h, 5 μmol/L ([3]; Caco-2, 5 µmol/L, Table S3): 6.8 nm/s
3 | Nc1cc(N2CCCCC2)nc(N)[n+]1[O-] [Minoxidil] |  |  |  | 59.4 | 0.96 | 5.94 10-6, cm/s |  |  |  |  |  |  | 57.1 | 
4 | CC(C)(C)[C@H](NC(=O)C(F)(F)F)C(=O)N1C[C@H]2[C@@H]([C@H]1C(=O)N[C@H](C#N)C[C@@H]1CCNC1=O)C2(C)C [PF-07321332, reference compound] | 0.08 | poor solubility | 0.05 |  |  |  | 0.04 | 0.05 | 0.04 | weight recovery | significant decrease | 0.03 |  | loss of inhibitory efficacy caused by the E166V mutation (E166V mutation of M^pro): over 200 fold

Source: article PMC12648101, “Targeting SARS-CoV-2 main protease for the discovery of a broad-spectrum COVID-19 inhibitor by intensive multi-tiered validation” (Acta Pharmaceutica Sinica. B, 2025)
